Structures are written as SMILES.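 Results reflect a 48-hour exposure of cells in 96-well plates to compound at five concentrations. TGI marks complete inhibition of growth.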 Where only a bound is given, the exact number is not on record here.

Test systems include A549 NSCLC; HCC-2998 colon; HCT-116 colon; HOP-92 NSCLC; KM12 colon; M14 melanoma; MDA-MB-231 breast; MOLT-4 leukemia; NCI-H226 lung; NCI-H460 lung; PC-3 prostate; SF-268 CNS; SNB-75 CNS; SW-620 colon; TK-10 renal; UACC-62 melanoma; SK-MEL-5 melanoma.
Test in all cases: growth of human tumour cells (NCI), 48 h

Turning to `COP(=O)(OC)/C(=C\c1cn(C(c2ccccc2)(c2ccccc2)c2ccccc2)cn1)NC(C)=O`, the TGI with A549 NSCLC, in the assay with HCC-2998 colon, in the assay on HCT-116 colon, in the assay with HOP-92 NSCLC, in the assay on KM12 colon and in the assay on M14 melanoma was above 100 µM throughout. Moreover, the TGI with MDA-MB-231 breast, in the assay on MOLT-4 leukemia, with NCI-H226 lung, with NCI-H460 lung, in the assay with PC-3 prostate and in the assay on SF-268 CNS was above 100 µM each time. Further, the TGI with SNB-75 CNS, in the assay with SW-620 colon, with TK-10 renal and in the assay on UACC-62 melanoma was above 100 µM throughout.

Regarding `O=c1[nH]c2c(c(=O)[nH]1)SSC2`, the TGI was above 63.5 µM with A549 NSCLC; 30.5 µM in the assay on HCC-2998 colon; 13.8 µM in the assay with HCT-116 colon; 10.7 µM with HOP-92 NSCLC; 38.8 µM in the assay on KM12 colon; 4.91 µM in the assay on M14 melanoma. In addition, the TGI is 5.15 µM in the assay with MDA-MB-231 breast; 4.79 µM in the assay on MOLT-4 leukemia; 41.1 µM in the assay with NCI-H226 lung; 27.2 µM with NCI-H460 lung; above 71.1 µM with PC-3 prostate; 13.6 µM with SF-268 CNS. In addition, the TGI with SK-MEL-5 melanoma worked out at 29.1 µM; with SNB-75 CNS, 34.8 µM; in the assay on SW-620 colon it was 29.9 µM; in the assay on TK-10 renal, 29.9 µM; with UACC-62 melanoma it was 9.14 µM.

Regarding `OC(C/C=N/Nc1ccccc1)(C(F)(F)Cl)C(F)(F)Cl`, the TGI in the assay with A549 NSCLC, with HCC-2998 colon, in the assay with HCT-116 colon, with HOP-92 NSCLC, in the assay with KM12 colon and in the assay on M14 melanoma was above 10 µM each time. In addition, the TGI in the assay with MDA-MB-231 breast, in the assay on NCI-H226 lung, in the assay on NCI-H460 lung, with PC-3 prostate, with SF-268 CNS and in the assay on SK-MEL-5 melanoma was above 10 µM throughout. Moreover, the TGI in the assay with SNB-75 CNS, in the assay with SW-620 colon, in the assay on TK-10 renal and with UACC-62 melanoma was above 10 µM throughout.

As for `C/C=C/[C@H](O[Si](C)(C)C(C)(C)C)[C@@H](O)/C=C/C(=O)OCC`, the TGI in the assay with A549 NSCLC was above 100 µM; in the assay with HCC-2998 colon it was 34.8 µM; in the assay on HCT-116 colon it was 32.3 µM; with HOP-92 NSCLC, 46.3 µM; in the assay with KM12 colon it was 32.3 µM; with MDA-MB-231 breast it was 66 µM. In addition, the TGI was 37.6 µM with MOLT-4 leukemia; 83.7 µM in the assay on NCI-H226 lung; 34.6 µM with NCI-H460 lung; above 100 µM in the assay on PC-3 prostate; 53.7 µM in the assay with SF-268 CNS; 32.2 µM in the assay with SK-MEL-5 melanoma. Further, the TGI is above 100 µM in the assay on SNB-75 CNS, 39.2 µM in the assay on SW-620 colon, 75.6 µM in the assay on TK-10 renal and 38.8 µM with UACC-62 melanoma.

For `CCc1cc2c(oc3cc(C)ccc32)c(=O)n1C`, the TGI with A549 NSCLC, with HCC-2998 colon, in the assay on HCT-116 colon, with HOP-92 NSCLC, in the assay on KM12 colon and in the assay with M14 melanoma was above 10 µM in each case. Also, the TGI in the assay with MDA-MB-231 breast, in the assay on MOLT-4 leukemia, in the assay on NCI-H226 lung, in the assay on NCI-H460 lung, in the assay with PC-3 prostate and in the assay with SF-268 CNS was above 10 µM throughout. For the same molecule, the TGI with SNB-75 CNS, with SW-620 colon and with TK-10 renal was above 10 µM in each case.

`CCOC(=O)C(=O)C(CCC(=O)c1ccc2ccccc2c1O)C(=O)OCC` (stereo not drawn): the TGI in the assay with A549 NSCLC, with HCC-2998 colon, in the assay on HCT-116 colon, with HOP-92 NSCLC, with KM12 colon and in the assay on M14 melanoma was above 100 µM in each case. The TGI in the assay on MDA-MB-231 breast, in the assay with MOLT-4 leukemia, with NCI-H226 lung, in the assay on NCI-H460 lung, with PC-3 prostate and in the assay on SF-268 CNS was above 100 µM in each case. Moreover, the TGI with SK-MEL-5 melanoma, with SNB-75 CNS, with SW-620 colon and in the assay with UACC-62 melanoma was above 100 µM throughout.

Turning to `CC1=NN(C(=O)CC(=O)Nc2cccc(Cl)c2)C(=O)C1N=Nc1ccc(C(=O)O)cc1` (stereo not drawn), the TGI with A549 NSCLC, with HCC-2998 colon, with HCT-116 colon, with HOP-92 NSCLC, in the assay on KM12 colon and in the assay on M14 melanoma was above 100 µM in each case. The TGI in the assay on MDA-MB-231 breast, in the assay with MOLT-4 leukemia, in the assay on NCI-H460 lung, in the assay with PC-3 prostate, in the assay with SF-268 CNS and in the assay on SK-MEL-5 melanoma was above 100 µM throughout. In addition, the TGI in the assay on SNB-75 CNS, in the assay with SW-620 colon, in the assay with TK-10 renal and in the assay on UACC-62 melanoma was above 100 µM in each case.

Take `CC1(C)[C@H]2Cc3cc(-c4cc5c(cn4)[C@@H]4C[C@H]([C@@H]5[C@@H]5c6cc(-c7cc8c(cn7)[C@@H]7C[C@H](C8)C7(C)C)ncc6[C@@H]6C[C@H]5C6(C)C)C4(C)C)ncc3[C@@H]1C2`: the TGI with A549 NSCLC, in the assay with HCC-2998 colon, in the assay with HCT-116 colon, in the assay with HOP-92 NSCLC, in the assay on KM12 colon and in the assay with M14 melanoma was above 100 µM in each case. In addition, the TGI in the assay with MDA-MB-231 breast, with MOLT-4 leukemia, in the assay on NCI-H226 lung, in the assay with NCI-H460 lung, with PC-3 prostate and in the assay with SF-268 CNS was above 100 µM each time. In addition, the TGI in the assay on SK-MEL-5 melanoma, in the assay with SNB-75 CNS, with SW-620 colon and with UACC-62 melanoma was above 100 µM in each case.

Values taken from PubChem BioAssay (NCI).
